Reference: patent US20260354380A1, “PYRAZOLO PESTICIDAL COMPOUNDS” (BASF SE, priority 2022, published 2026)

Key:
Type in all cases: in vivo
Anthonomus grandis = assay: Action on Boll Weevil (Anthonomus grandis); conditions: 800 ppm; egg and larval mortality; 5 days
Protocol: Example B3: Action on Boll Weevil (Anthonomus grandis)
For evaluating control of boll weevil (Anthonomus grandis) the test unit consisted of 96-well-microtiter plates containing an insect diet and 5-10 A. grandis eggs.
The compounds were formulated using a solution containing 75% (v/v) water and 25% (v/v) DMSO. Different concentrations of formulated compounds were sprayed onto the insect diet at 5 μl, using a custom-built micro atomizer, at two replications.
After application, microtiter plates were incubated at about 25±1 °C and about 75±5% relative humidity for 5 days. Egg and larval mortality were then visually assessed.

Heliothis virescens = assay: Action on Tobacco Budworm (Heliothis virescens); conditions: 800 ppm; egg and larval mortality; 5 days
Protocol: Example B5: Action on Tobacco Budworm (Heliothis virescens)
For evaluating control of tobacco budworm (Heliothis virescens) the test unit consisted of 96-well-microtiter plates containing an insect diet and 15-25 H. virescens eggs.
The compounds were formulated using a solution containing 75% v/v water and 25% v/v DMSO. Different concentrations of formulated compounds were sprayed onto the insect diet at 10 μl, using a custom-built micro atomizer, at two replications.
After application, microtiter plates were incubated at about 28±1 °C and about 80±5% relative humidity for 5 days. Egg and larval mortality were then visually assessed.

Spodoptera eridania = assay: Action on Southern Armyworm (Spodoptera eridania), 2nd Instar Larvae; conditions: 300 ppm; 2nd instar larvae; 4 days after treatment
Protocol: Example B7: Action on Southern Armyworm (Spodoptera eridania), 2nd Instar Larvae
The active compounds were formulated by a Tecan liquid handler in 100% cyclohexanone as a 10,000 ppm solution supplied in tubes. The 10,000 ppm solution was serially diluted in 100% cyclohexanone to make interim solutions. These served as stock solutions for which final dilutions were made by the Tecan in 50% acetone: 50% water (v/v) into 10 or 20 ml glass vials. A nonionic surfactant (Kinetic®) was included in the solution at a volume of 0.01% (v/v). The vials were then inserted into an automated electrostatic sprayer equipped with an atomizing nozzle for application to plants/insects.
Lima bean plants (variety Sieva) were grown 2 plants to a pot and selected for treatment at the 1st true leaf stage. Test solutions were sprayed onto the foliage by an automated electrostatic plant sprayer equipped with an atomizing spray nozzle. The plants were dried in the sprayer fume hood and then removed from the sprayer. Each pot was placed into perforated plastic bags with a zip closure. About 10 to 11 armyworm larvae were placed into the bag and the bags zipped closed. Test plants were maintained in a growth room at about 25 °C and about 20-40% relative humidity for 4 days, avoiding direct exposure to fluorescent light (24 hour photoperiod) to prevent trapping of heat inside the bags. Mortality and reduced feeding were assessed 4 days after treatment, compared to untreated control plants.
(§1) Compounds disclosed in the document WO2021013561 were prepared according to procedures described therein and their pesticidal activities were determined by procedure analogues to the procedures as described above in examples B6 and B7.

Plutella xylostella [1] = assay: Action on Diamond Back Moth (Plutella xylostella), cabbage leaf dip, 3rd instar larvae; conditions: 300 ppm; 3rd instar larvae; 72 hours after treatment
Protocol: Example B6: Action on Diamond Back Moth (Plutella xylostella)
The active compound is dissolved at the desired concentration in a mixture of 1:1 (v/v) distilled water:acetone. Surfactant (Kinetic® HV) is added at a rate of 0.01% (v/v). The test solution is prepared at the day of use.
Leaves of cabbage were dipped in test solution and air-dried. Treated leaves were placed in petri dishes lined with moist filter paper and inoculated with ten 3rd instar larvae. Mortality was recorded 72 hours after treatment. Feeding damages were also recorded using a scale of 0-100%.
as §1

Aedes aegypti = assay: whole plant or invertebrate; conditions: 800 ppm; larvae; 2 days
Protocol: Example B1: Action on Yellow Fever Mosquito (Aedes aegypti)
For evaluating control of yellow fever mosquito (Aedes aegypti) the test unit consisted of 96-well-microtiter plates containing 200 μl of tap water per well and 5-15 freshly hatched A. aegypti larvae.
The active compounds or mixtures were formulated using a solution containing 75% (v/V) water and 25% (v/v) DMSO. Different concentrations of formulated compounds or mixtures were sprayed onto the insect diet at 2.5 μl, using a custom-built micro atomizer, at two replications. For experimental mixtures in these tests identical volumes of both mixing partners at the desired concentrations respectively, were mixed together.
After application, microtiter plates were incubated at 28±1 °C, 80±5% RH for 2 days. Larval mortality was then visually assessed.

Plutella xylostella [2] = assay: Action on Diamond Back Moth (Plutella xylostella), microtiter plates, insect diet, eggs; conditions: 800 ppm; egg and larval mortality; 5 days
Protocol: Example B8: Action on Diamond Back Moth (Plutella xylostella)
For evaluating control of diamond back moth (Plutella xylostella) the test unit consisted of 96-well-microtiter plates containing an insect diet and 15-25 P. xylostella eggs. The compounds or mixtures were formulated using a solution containing 75% water and 25% DMSO. Different concentrations of formulated compounds or mixtures were sprayed onto the insect diet at 5 μl, using a custom-built micro atomizer, at two replications. For experimental mixtures in these tests identical volumes of both mixing partners at the desired concentrations respectively, were mixed together. After application, microtiter plates were incubated at 28±1 °C, 80±5% RH for 5 days. Egg and larval mortality was then visually assessed.

Compound | mortality in comparison with untreated controls (Anthonomus grandis) | mortality in comparison with untreated controls (Heliothis virescens) | mortality in comparison with untreated controls (Spodoptera eridania) | mortality in comparison with untreated controls (Plutella xylostella [1]) | mortality in comparison with untreated controls (Aedes aegypti) | mortality in comparison with untreated controls (Plutella xylostella [2])
Cc1ccc(C(C)C)c(N2C(=O)CS/C2=N\C(=O)Nc2ccc(-n3cc(NC(=O)c4ccc(C(C)(F)F)cc4)c(C)n3)cc2)c1 [Example C-36] | at least 75% | at least 75% | at least 75% | at least 75% | at least 50% | –
Cc1ccc(C(C)C)c(N2C(=O)CSC2=NC(=O)Nc2ccc(-n3cc(NC(=O)c4csc(Cl)c4)c(C)n3)cc2)c1 [Example C-39] | at least 75% | at least 75% | at least 75% | at least 75% | at least 50% | –
Cc1ccc(C(C)C)c(N2C(=O)CSC2=NC(=O)Nc2ccc(-n3cc(NC(=O)c4cc(Cl)cs4)c(C)n3)cc2)c1 [Example C-40] | at least 75% | at least 75% | at least 75% | at least 75% | at least 50% | –
Cc1ccc(C(C)C)c(N2C(=O)CSC2=NC(=O)Nc2ccc(-n3cc(NC(=O)c4nc(Cl)cs4)c(C)n3)cc2)c1 [Example C-42] | at least 75% | at least 75% | at least 75% | at least 75% | at least 50% | –
Cc1ccc(C(C)C)c(N2C(=O)CSC2=NC(=O)Nc2ccc(-n3cc(NC(=O)c4csc(Cl)n4)c(C)n3)cc2)c1 [Example C-43] | at least 75% | at least 75% | at least 75% | at least 75% | at least 50% | –
Cc1ccc(C(=O)Nc2cn(-c3ccc(NC(=O)N=C4SCC(=O)N4c4cc(C)ccc4C(C)C)cc3)nc2C)cc1 [Example C-49] | at least 75% | at least 75% | at least 75% | at least 75% | at least 50% | –
Cc1ccc(C(C)C)c(N2C(=O)CSC2=NC(=O)Nc2ccc(-n3cc(NC(=O)c4ccc(S(C)(=O)=O)cc4)c(C)n3)cc2)c1 [Example C-53] | – | – | – | – | – | at least 75%
Cc1ccc(C(C)C)c(N2C(=O)CSC2=NC(=O)Nc2ccc(-n3cc(NC(=O)c4ccncc4)c(C)n3)cc2)c1 [Example C-59] | at least 75% | at least 75% | at least 75% | at least 75% | at least 50% | –
CNC(=O)c1ccc(C(=O)Nc2cn(-c3ccc(NC(=O)N=C4SCC(=O)N4c4cc(C)ccc4C(C)C)cc3)nc2C)cn1 [Example C-60] | – | – | – | – | – | at least 75%
Cc1ccc(C(C)C)c(N2C(=O)CSC2=NC(=O)Nc2ccc(-n3cc(NC(=O)c4ccc(I)cc4)c(C)n3)cc2)c1 [Example C-71] | at least 75% | at least 75% | at least 75% | at least 75% | at least 50% | –
Cc1ccc(C(C)C)c(N2C(=O)CSC2=NC(=O)Nc2ccc(-n3cc(NC(=O)c4ccc(C(C)(C)C)cc4)c(C)n3)cc2)c1 [Example C-73] | – | – | – | – | – | at least 75%
Cc1ccc(C(C)C)c(N2C(=O)CSC2=NC(=O)Nc2ccc(-n3cc(NC(=O)c4ccc(S(=O)(=O)C(F)(F)F)cc4)c(C)n3)cc2)c1 [Example C-79] | at least 75% | at least 75% | at least 75% | at least 75% | at least 50% | –
Cc1ccc(C(C)C)c(N2C(=O)CSC2=NC(=O)Nc2ccc(-n3cc(NC(=O)c4ccc(C(F)F)cc4)c(C)n3)cc2)c1 [Example C-82] | at least 75% | at least 75% | at least 75% | at least 75% | at least 50% | –
Cc1ccc(C(C)C)c(N2C(=O)CSC2=NC(=O)Nc2ccc(-n3cc(NC(=O)c4ccc(C5(F)CC5)cc4)c(C)n3)cc2)c1 [Example C-88] | at least 75% | at least 75% | at least 75% | at least 75% | at least 50% | –
Cc1csc(C(=O)Nc2cn(-c3ccc(NC(=O)/N=C4\SCC(=O)N4c4cc(C)ccc4C(C)C)cc3)nc2C)c1 [Example C-93] | at least 75% | at least 75% | at least 75% | at least 75% | at least 50% | –
Cc1ccc(C(C)C)c(N2C(=O)CS/C2=N\C(=O)Nc2ccc(-n3cc(NC(=O)c4ccc(C)s4)c(C)n3)cc2)c1 [Example C-94] | at least 75% | at least 75% | at least 75% | at least 75% | at least 50% | –
Cc1ccc(C(C)C)c(N2C(=O)CS/C2=N\C(=O)Nc2ccc(-n3cc(NC(=O)c4cccs4)c(C)n3)cc2)c1 [Example C-95] | at least 75% | at least 75% | at least 75% | at least 75% | at least 50% | –
Cc1ccc(C(C)C)c(N2C(=O)CS/C2=N\C(=O)Nc2ccc(-n3nc(C)c(NC(=O)c4ccc(OC(F)(F)F)cc4)c3C)cc2C2CC2)c1 [Example C-96] | at least 75% | at least 75% | at least 75% | at least 75% | at least 50% | –
